Reference: patent US11944604B1, “Nanoformulation of spriooxindole and methods for treating hepatocellular carcinoma” (KING SAUD UNIVERSITY, priority 2023, dated 2024)
Read-outs that look alike come from different tables or passages of the source.

Columns and labels:
[1] = Lipophilicity (log K as surrogate for log P); format: physicochemical
Experimental: An LLE value≥3 for a lead compound is acceptable, and for a drug candidate LLE value ≥5 is recommended. To get more accurate results, log P was calculated practically, and Log K was measured as indicator and surrogate for log p.

[2] = tested on: CCl4-induced liver cancer; experiment: CCl4-induced liver cancer model: serum liver/kidney markers and H&E histopathology; format: in vivo, mice; set-up: GPT (ALT) / Creatinine / GOT (AST): unit not given here; conditions: for Creatinine / GOT (AST) / GPT (ALT): serum, mean ± SD; for mitotic activity of liver cells (H&E): CCl4-treated mice
Experimental: (§1) An in vivo study was carried out in Male Balb/c mice, each weighing 15-25 g. All mice were purchased from Medical Experimental Research Center (MERC), Mansoura University, Egypt. Mice were acclimatized for one week in the new animal care facility, at the Zoology Department, Mansoura University, Egypt, under specific pathogen-free (SPF) conditions, and provided with conventional food and drinking water before the study. All animal experiments were carried out following the guidelines of the faculty of Science, Mansoura University, Egypt.
(§2) Twenty five mice were treated with carbon tetrachloride (CCl4, from LOBA Chemie Pvt Ltd, Mumbai, India, 1:5 in corn oil) twice weekly via IP injection for 24 weeks. After that period of time, mice were distributed evenly into 5 groups of 5 mice. Group 1 was treated with the solvent 10% DMSO; group 2 was treated with a low dose of compound 4d (50 mg/kg/daily) for 14 days; group 3 was treated with a high dose of compound 4d (200 mg/kg) for 6 hours; group 4 was treated with a high dose of compound 4d (200 mg/kg) for 24 hours; and group 5 was treated with a high dose of compound 4d (200 mg/kg) for 48 hours.
At the end of each treatment, all mice were sacrificed, and blood and liver were collected for evaluation. The liver samples were washed in ice cold 1× phosphate buffered saline (PBS), and fixed in 10% buffered formalin till examination.
(§3) The blood was centrifuged to collect serum or plasma for biochemical analysis. The blood chemistry was evaluated to detect the level of serum alanine aminotransferase (ALT), serum aspartate aminotransferase (liver function test), and serum creatinine (kidney function test). Complete blood count analysis was carried out to detect the effect of compound 4d treatment on blood platelet count, because it has been reported that p53-MDM2 inhibitors cause high grade thrombocytopenia (i.e., decreased numbers of platelets).
(§4) The formalin-fixed liver specimens were embedded in paraffin, and sections were taken and prepared for hematoxylin and Eosin (H&E) staining. The slides were examined for hepatic architecture, degenerative changes, inflammatory changes, hepatocytes necrosis, mitosis, dysplastic changes and malignant transformation. 4 μm thick sections were prepared on coated slides.
An in vivo model was carried out to test the efficacy of compound 4d in treatment of liver cancer by applying two regimens of compound 4d: a single dose of 200 mg/kg and the treated mice were sacrificed after 6, 24 or 48 hours; or a daily dose of 50 mg/kg for 14 days. Liver cancer was induced chemically by CCl4 (1:5 dilution in corn oil, twice per week). […] The liver architecture was disturbed and there were cirrhotic nodules with bridging fibrosis (FIG. 3A).

[3] = tested on: Male Balb/c mice; experiment: Safety / tolerated dose study of compound 4d in healthy mice (blood count, blood chemistry, histopathology); format: in vivo; conditions: for Creatinine / GOT / GPT / Hb / Leukocytes / Platelets: mean ± SD
Experimental: as §1
The lethal dose of compound 4d was evaluated according to standard Dose-Probing Tests. Mice were divided into groups of three for evaluating the LD50. Each group received either a different concentration of compound 4d (ranging from 10 ng/Kg to 200 mg/Kg), in corn oil, or the solvent 10% DMSO in corn oil, by intraperitoneal (IP) injection.
The weight and physical symptoms of the mice were monitored for 14 days. After that, all groups were sacrificed, and the liver, kidney, heart, and spleen were collected for histological evaluation of the toxicity of compound 4d. Blood was collected from each mouse for evaluation of the effect of compound 4d on liver and kidney function.
as §3, §4
In order to evaluate the tolerated dose of compound 4d, mice were intraperitoneally injected with different doses, and physical symptoms were evaluated daily for 14 days. The maximum dose used was 200 mg/kg, because of the solubility limitation in DMSO. DMSO was adjusted to the tolerated dose 10% in corn oil.

[4] = tested on: p53; experiment: Immunohistochemistry of p53 in liver sections of CCl4-treated mice; format: in vivo
Experimental: as §2
(§5) The sections were de-paraffinized in xylene, then rehydrated. Endogenous tissue peroxidase was blocked by incubating the slides for 5 minutes in 0.3% hydrogen peroxide. Antigen retrieval was done by heating the sections in citrate buffer, at pH 6.0, in a microwave. Then, the sections were incubated with monoclonal mouse p53 (clone DO-7, Dako, USA), rabbit polyclonal caspase 3 antibody (CPP32) Ab-4 (ThermoScientific), or with monoclonal mouse Ki-67 antigen (clone MIB-1, Dako, USA).
(§6) The slides were counterstained with hematoxylin and then dehydrated in alcohol and cleared xylene. The immunohistochemical and pathological changes were examined by light microscopy (binocular, Olympus). Images were taken using a digital camera (Canon, 5 mega pixels, at 3.2× optical zoom). […]

[5] = tested on: colon cancer cells; conditions: cited from earlier work
[6] = tested on: PC-3; experiment: Anticancer potency and ligand efficiency scores, PC-3; format: cell-based; conditions: Homo sapiens
Source text: (§7) LE is used to measure the efficiency of compounds and determine binding affinity (in terms of binding energy or pIC50) in relation to the number of heavy atoms in a molecule. This provides a way to compare the affinity of molecules corrected for their size.
(§8) LE represents the ratio of the affinity of a ligand divided by the number of heavy (non-hydrogen) atoms in the molecule (LE=ΔG/[number of heavy atoms. LE can be calculated according to the following equation: LE=(plC50×1.37)/NHA • where: • IC50=half-maximal inhibitory concentration (in term of molar concentration). • NHA=non-hydrogen atom. The recommended LE value for lead-likeness should be in the range of 0.3. The acceptable LE value for drug-likeness should be higher than 0.3.
(§9) LLE can be calculated as follows: LLE=pIC50−C log P

[7] = tested on: HepG2; experiment: Anticancer potency and ligand efficiency scores, HepG2; format: cell-based; conditions: Homo sapiens
Source text: as §7, §8, §9

[8] = tested on: caspase 3; experiment: Immunohistochemistry of caspase 3 in liver sections of CCl4-treated mice; format: in vivo; conditions: low dose daily for 14 days or high dose for 48 hours
Experimental: as §2, §5, §6

[9] = tested on: Ki-67; experiment: Immunohistochemistry of Ki-67 in hepatocytes of CCl4-treated mice; format: in vivo; conditions: low (daily dose for 14 days) or high dose (single dose)
Experimental: as §2
The sections were de-paraffinized in xylene, then rehydrated. Endogenous tissue peroxidase was blocked by incubating the slides for 5 minutes in 0.3% hydrogen peroxide. Antigen retrieval was done by heating the sections in citrate buffer, at pH 6.0, in a microwave. […]
The statistical analysis was done using the software SPSS 19 for Microsoft Windows (SPSS Inc, Chicago, Illinois). A quantitative analysis of the number of hepatocytes with positive nuclear Ki-67 staining were tested using a one-way analysis of variance (ANOVA), with Duncan's multiple comparisons of the means to compare difference between means.
The level of proliferative Ki-67 marker was evaluated using immunohistochemistry. […]

[10] = tested on: HCT-116; experiment: Anticancer potency and ligand efficiency scores, HCT-116; format: cell-based; conditions: Homo sapiens
Source text: as §7, §8, §9

[11] = tested on: colon, liver and prostate cancer; conditions: anticancer activity against colon; cited from earlier work
[12] = healthy mice, IP, 50 mg/kg/14 d
[13] = healthy mice, IP, 200 mg/kg/24 hrs
[14] = healthy mice, IP, 200 mg/kg/48 hrs

In the case of `O=C(/C=C/c1ccc(Cl)cc1Cl)[C@H]1[C@H](c2ccc(Cl)cc2Cl)[C@H]2CSCN2[C@]12C(=O)Nc1ccccc12` [Compound 4d, (3R,6′S,7′R,7a′S)-7′-(2,4-dichlorophenyl)-6′-((E)-3-(2,4-dichlorophenyl)acryloyl)-1′,6′,7′,7a′-tetrahydro-3′H-spiro[indoline-3,5′-pyrrolo[1,2-c]thiazol]-2-one], the “log K” value [1] is reported as 1.19, the Creatinine ([2]; CCl4 + 50 mg/kg/14 d) is reported as 0.4120 ± 0.2 and the “GOT (AST)” value ([2]; CCl4 + 50 mg/kg/14 d) is reported as 449.20 ± 109.2. For the same compound, the “GPT (ALT)” value ([2]; CCl4 + 50 mg/kg/14 d) was 2028.6 ± 168, the Creatinine ([2]; CCl4 + 200 mg/kg/6 hrs) was 0.4560 ± 0.1823 and the “GOT (AST)” value ([2]; CCl4 + 200 mg/kg/6 hrs) was 3419.00 ± 130.5. The “GPT (ALT)” value ([2]; CCl4 + 200 mg/kg/6 hrs) was 3430.4 ± 137.48, the Creatinine ([2]; CCl4 + 200 mg/kg/24 hrs) was 0.4860 ± 0.17 and the “GOT (AST)” value ([2]; CCl4 + 200 mg/kg/24 hrs) was 1161.00 ± 108.5. The “GPT (ALT)” value ([2]; CCl4 + 200 mg/kg/24 hrs) was 2209.0 ± 132.8, the Creatinine ([2]; CCl4 + 200 mg/kg/48 hrs) was 0.4660 ± 0.16 and the “GOT (AST)” value ([2]; CCl4 + 200 mg/kg/48 hrs) was 208.40 ± 9.32. The “GPT (ALT)” value ([2]; CCl4 + 200 mg/kg/48 hrs) was 961.6 ± 15.96, the “mitotic activity of liver cells (H&E)” value ([2]; daily dose of 50 mg/kg for 14 days) was “no mitotic activity” and the “mitotic activity of liver cells (H&E)” value ([2]; single dose of 200 mg/kg, after 6 hours) was 1 /10 H.P.F. For the same compound, the “mitotic activity of liver cells (H&E)” value ([2]; single dose of 200 mg/kg, longer incubation (24 hours)) was 1 /10 H.P.F, the “mitotic activity of liver cells (H&E)” value ([2]; single dose of 200 mg/kg, two days (48 hours)) was 2 /10 H.P.F and the “change in the behavior, feeding or drinking of the mice” value ([3]; IP, doses up to 200 mg/kg, observed daily for 14 days) was “did not cause any change”. The Creatinine [3, 12] was 0.49 ± 0.21, the GOT [3, 12] was 281.0 ± 231.9 and the GPT [3, 12] was 486.6 ± 339.9. It also gave a Hb [3, 12] of 10.16 ± 1.1, a Leukocytes [3, 12] of 12.5 ± 6.9 and a Platelets [3, 12] of 433.0 ± 304.6. For the same compound, the Creatinine [3, 13] was 0.67 ± 0.24, the GOT [3, 13] was 129.6 ± 56.5 and the GPT [3, 13] was 498.0 ± 228.8. The Hb [3, 13] was 10.1 ± 1.43, the Leukocytes [3, 13] was 10.6 ± 6.9 and the Platelets [3, 13] was 519 ± 302.9. It also gave a Creatinine [3, 14] of 0.692 ± 0.567, a GOT [3, 14] of 145.7 ± 198.9 and a GPT [3, 14] of 368.0 ± 208.1. For the same compound, the Hb [3, 14] was 10.4 ± 1.78, the Leukocytes [3, 14] was 13.6 ± 6.4 and the Platelets [3, 14] was 407.0 ± 281.6. For the same compound, the “pathological alteration in kidney, heart or spleen” value ([3]; healthy mice, histopathology) was “did not cause any pathological alteration”, the “platelet count (complete blood count)” value ([3]; healthy mice, in words) was “no aberrant or significant change” and the “liver architecture, hematoxylin and eosin staining” value ([3]; healthy mice, treatment for 14 days) was “normal liver architecture without any degenerative changes”. For the same compound, the “level of p53 in liver sections” value ([4]; daily dose of 50 mg/kg for 14 days, versus mice only treated with CCl4) was “higher levels of detected p53”, the “activation of p53 in liver sections” value ([4]; single dose of 200 mg/kg for 6, 24 or 48 hours) was “time-dependent activation of p53” and the “apoptosis (Bcl-2 inhibition, Bax activation)” value [5] was “induction of apoptosis”. For the same compound, the “colony formation and wound healing” value ([5]; treated colon cancer cells) was “inhibited colony formation, and wound healing”, the p21 gene expression ([5]; treated colon cancer cells) was “overexpression of cell cycle inhibitor p21 gene” and the p53 activation ([5]; treated colon cancer cells) was “activation of p53”. The IC50 ([6]; read-out: PC-3 (unnamed value under the cell line head)) was 1.8 µM, the IC50 ([6]; read-out: pIC50 (converted)) was 1.82 µM and the IC50 ([7]; read-out: HepG2 (unnamed value under the cell line head)) was 0.85 µM. The IC50 ([7]; read-out: IC50 (converted)) was 0.851 µM, the “level of caspase 3 in liver sections” value [8] was “induced the activation of caspase 3” and the “number of Ki-67 nuclear stained hepatocytes” value [9] was “significantly increased”. The IC50 ([10]; read-out: HCT-116 (unnamed value under the cell line head)) was 2 µM, the IC50 ([10]; read-out: pIC50 (converted)) was 2.04 µM and the selectivity index [11] was “greater than 2”.
